Data on two compounds can be found in publication PMC6832513, “Antimalarial Properties of Dunnione Derivatives as NQO2 Substrates” (Molecules, 2019).

A short description of series [1]: Cytotoxic evaluation on the Hela cell line (MTT assay). Type of series: cell-based. The note with it: human, Hela cells. The procedure: The evaluation of the tested molecules’ cytotoxicity on the Hela cell line was conducted according to the method of Mosman with slight modifications. Briefly, cells (1 × 10^5 cells/mL) in 100 µL of complete medium, (MEM supplemented with 10% fetal bovine serum, 2 mM L-glutamine and antibiotics (100 U/mL penicillin and 100 µg/mL streptomycin) were seeded into each well of the 96-well plates and incubated at 37 °C and 5% CO2. After a 24 h incubation, 100 µL of medium with various product concentrations and appropriate controls were added and the plates were incubated for 72 h at 37 °C and 5% CO2. Each plate-well was then microscope-examined to detect possible precipitate formation before the medium was aspirated from the wells. MTT solution (100 µL, 0.5 mg/mL in RPMI) was then added to each well. Cells were incubated for 2 h at 37 °C and 5% CO2. After this time, the MTT solution was removed and DMSO (100 µL) was added to dissolve the resulting formazan crystals. Plates were shaken vigorously (300 rpm) for 5 min. The absorbance was measured at 570 nm with a microplate spectrophotometer (Eon BioTek). DMSO was used as blank and doxorubicin (purchased from Sigma Aldrich) as positive control. CC50 were calculated by non-linear regression analysis processed on dose response curves, using TableCurve 2D V5 software (San Jose, CA, USA). CC50 values represent the mean value calculated from three independent experiments.
(In general: Tetrazolium dyes change colour on reduction, which living cells bring about.)

The next series deals with P. berghei ANKA. As to the kind of experiment: Four-days suppressive test, P. berghei ANKA mice model (cerebral malaria). The note with it: for survival rate on D10: 50 mg/kg intraperitoneal D0 to D3, D10. It counts as in vivo, Plasmodium berghei ANKA in Swiss mice. The procedure:
As previously described, the four-days suppressive standard test described by Knight and Peters was used to evaluate antimalarial activity of Compounds 1 and 3. P. chabaudi chabaudi (Pcc) and P. berghei ANKA (PbA) infections in Swiss mice were used as experimental models for uncomplicated and cerebral malaria, respectively. […] On the first day (D0), mice were inoculated intraperitoneally with 0.2 mL of infected blood containing about 1 × 10^6 parasitized erythrocytes. […] All mice groups were treated similarly for four consecutive days (D0–D3). Weight, parasitemia and survival were followed daily. To follow peripheral parasite density, thin blood smears were made daily from tail blood from D3 to D14. Blood smears were fixed with methanol and stained with a fast-acting variation of the May–Grünwald Giemsa staining (RAL 555 kit, RAL diagnostics). Average percentage chemosuppression was calculated at D8 for both infection models as ((A − B)/A) × 100 where A is the average percentage parasitemia in the negative control group and B is the average percentage parasitemia in the test group. Survival was monitored twice daily. The percentage survival was determined over a period of 21 days (D0–D20) and compared between groups.

Another series addresses T1, NQO2 (Homo sapiens, UniProt P16083).
T1 construct: The experiments were conducted with purified enzyme NQO2 (20 µg/mL)
T1 sequence (P16083 1-231): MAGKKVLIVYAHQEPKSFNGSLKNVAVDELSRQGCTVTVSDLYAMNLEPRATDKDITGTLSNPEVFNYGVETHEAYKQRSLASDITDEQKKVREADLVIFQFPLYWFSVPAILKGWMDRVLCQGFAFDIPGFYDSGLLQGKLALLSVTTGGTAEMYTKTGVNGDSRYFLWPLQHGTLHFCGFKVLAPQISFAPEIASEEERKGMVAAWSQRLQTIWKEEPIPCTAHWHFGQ
Description: EPR measurement of free radicals (ROS) produced after metabolism by NQO2. Type of series: biochemical. The note with it: for radical production after reduction by NQO2: EPR with DMPO spin trap; for radical production after adding the specific NQO2 inhibitor S29434 / ROS after NQO2 Reduction: EPR; for radical production after adding the specific NQO2 inhibitor S29434: S29434 30 µM; for ROS after NQO2 Reduction: purified NQO2 20 µg/mL, compound 125 µM, BNAH 1 mM, DMPO 125 mM, grades - to + + + + +, key not given. As to the method:
As in previous work, we used an indirect assay to characterize the substrates. […] Using the capacity of NQO2 to reduce quinones into hydroquinones or quinols, we incubated the substrate candidates with the enzyme and its co-substrate, a synthetic hydride donor, N-benzyldihydronicotinamide. […] Thus, using an EPR-based assay, it was possible to evaluate the potency of the process by quantifying those bursts by measuring for the presence of free radicals. The rationale of the process was based on the simple idea that such substrates would generate bursts of ROS, which are particularly toxic for infected red cells.
We measured the ability of the selected compounds to produce superoxide radicals during the redox cycle of NQO2 by EPR spectroscopy. The following compounds were used as molecular tools: Menadione (Figure 1) as a reference compound and NQO2 substrate, S29434 as a specific NQO2 inhibitor [17] and dimethyl-pyrroline-N-oxide (DMPO) as a spin trap reagent to characterize ROS.
The experiments were conducted with purified enzyme NQO2 (20 µg/mL), DMPO (125 mM), tested compounds (125 µM) and BNAH (1 mM). For inhibition assays, we added S29434 (30 µM). All analyses were performed at room temperature. EPR spectra were recorded with a Bruker EMX-8/2.7 (9.86 GHz) with a high-sensitivity cavity (4119/HS 0205) and a gaussmeter (Bruker, Wissembourg, France), at X-band. For analyses, we used a flat quartz cell, FZKI160-5 × 0.3 mm (Magnettech, Berlin, Germany). We performed data processing and spectrum acquisition with WINEPR software (Bruker). Scanning parameters were: Number of scans, 5; magnetic field, 3460–3560 G; sweep width, 100 G; scan rate, 1.2 G/s; modulation amplitude, 1 G; sweep time, 83.88 s; time constant, 40.96 ms; modulation frequency, 100 kHz; and microwave power, 20 mW. The EPR spectra were analyzed as reported previously. The EPR spectrum was presented with the magnetic field on the x-axis in gauss (g) and the intensity of the peaks on the y-axis in arbitrary units (a.u.).

The nature of series [2]: Acute toxicity in healthy Swiss mice. It counts as in vivo. The settings on record: for weight variation compared to the vehicle control group: healthy Swiss mice, 50 mg/kg intraperitoneal, Days 7, 14 and 20; for mortality or major behavioral changes: mouse, in vivo, ip, 50 mg/kg. The procedure: Compounds 1 and 3 were diluted in 50% DMSO and tested at 50 mg/kg. Protocols used for acute oral toxicity measurement were previously described. Briefly, mice were randomly divided into three groups of three mice and treated once a day from D0 to D3 by the intraperitoneal route with 200 µL of Compound 1 or Compound 3 at 50 mg/kg, or DMSO 50%.

The mark [3] stands for this setting: 50 mg/kg intraperitoneal D0 to D3.

Molecules are shown by their SMILES. “Also recorded” adds a separate entry of the source.

Usually CC50 stands for the concentration giving 50% cytotoxicity.

Take `COc1cccc2c1C1=C(C(=O)C2=O)C(C)(C)C(C)O1` (centres unmarked) [Compound 1]: in series [1], the CC50 at 72 h turned out to be 2.42 ± 0.905 µM. Moreover, in the series with P. berghei ANKA (setting [3]), the “effect on weight loss and parasitemia during PbA infection” value is “did not limit either weight loss or parasitemia”; the “superiority over DMSO (survival)” value is on record as “statistically significant until D15”. The “survival rate on D10” value in the series on P. berghei ANKA is 80%. At NQO2, the “radical production after reduction by NQO2” value was “produced radicals; also recorded: induced a production of ROS”, the “radical production after adding the specific NQO2 inhibitor S29434” value is reported as “decreased” and the “ROS after NQO2 Reduction” value was “+ +”. Also, in series [2], the “weight variation compared to the vehicle control group” value is recorded as “similar” and the “mortality or major behavioral changes” value is “did not cause mortality or major behavioral changes”.

In series [1], `COc1ccc2c(c1)C(=O)C(=O)C1=C2OC(C)C1(C)C` (centres unmarked) [Compound 3] showed a CC50 at 72 h of 1.43 ± 0.314 µM. For the same compound, the “effect on weight loss and parasitemia during PbA infection” value with P. berghei ANKA (setting [3]) is recorded as “did not limit either weight loss or parasitemia”. For the same compound, the “survival rate on D10” value with P. berghei ANKA turned out to be 100%. On NQO2, the “radical production after reduction by NQO2” value is listed as “produced radicals; also recorded: induced a production of ROS”, the “radical production after adding the specific NQO2 inhibitor S29434” value is recorded as “decreased” and the “ROS after NQO2 Reduction” value is given as “+ + +”. In series [2], the “weight variation compared to the vehicle control group” value is listed as “similar” and the “mortality or major behavioral changes” value was “did not cause mortality or major behavioral changes”.
